# Values of other authors as cited in publication PMC8201753 (ACS Medicinal Chemistry Letters, 2021).
# Test system: ERα-dependent cells
# Conditions: cited from earlier work
smiles,measurement,value
"C=CC(C)(C)OC[C@H]1O[C@H](O[C@@H]2C3=C([C@H](C)COC(C)=O)C[C@H](O)[C@]3(C)/C=C3/[C@@H](COC)CC[C@H]3[C@@H](C)[C@H]2O)[C@H](O)[C@@H](OC(C)=O)[C@@H]1O [FC-A, fusicoccin-A]",Growth of ERα-dependent cells,blocks growth
